Experimental findings from PubChem BioAssay AID2305 (GlaxoSmithKline (GSK), 2010) are described below.

The experiment relates to P. falciparum 3D7 growth, pLDH absorbance. Briefly: P. falciparum 3D7 growth inhibition, dose response, strain 3D7 (AID 2305).

pIC50: −log10 of the molar value. “And” between values parts separate entries of the source, which are not always exact repeats. Equal values may be shown once.

`COc1ccc(CN2CCCC(N3CC4(OC3=O)c3ccccc3-c3ccccc34)C2)c(O)c1` (configuration not stated) showed a pIC50 of 6.06.
The compound `CCCCCCCCc1c(C)[nH]c(C)c(I)c1=O` had a pIC50 of 6.13.
As for `Fc1ccc2nc(-c3ccc(-c4ccc(CNCCN5CCNCC5)cc4)s3)[nH]c2c1`, the figure is 6.11; as for `CC[C@H](C)[C@@H](C(=O)N1CCOCC1)N1CC[C@H](NS(=O)(=O)CC(C)(C)c2ccc(Cl)cc2)C1=O`, 6.26; as for `Cc1cc2c(cc1C(F)(F)F)N(C(=O)Nc1cnc(OCCN(C)C)c(C(F)(F)F)c1)CC2`, 6.01.
Then `CCCCCCCCCCN1C(=O)C2C(CCCCNC(C)=O)NC3(C(=O)N(Cc4ccc(C(C)(C)C)cc4)c4ccccc43)C2C1=O` (configuration not stated), with 6.00; and `c1ccc2c(c1)cc(CNCCCN1CCN(CCCNCc3cc4ccccc4c4ccccc34)CC1)c1ccccc12`, with 6.70.
As for `Cc1cc(N2CCN(C3CCCCC3)CC2)nc2cccc(O)c12`, the figure is 6.15; as for `CC(C)CNCc1cccc(-c2cccc(CN(C(=O)c3cccs3)C3CCN(Cc4ccccc4)CC3)c2)c1`, 6.05.
In turn, `CC(CN(C)C)C(=O)Nc1cccc(-c2ccc(-c3nc4ccccc4[nH]3)cc2)c1` (configuration not stated) gave a negative logarithm of the IC50 (pIC50) of 6.15.
Then `COc1ccc(-c2ccccc2)cc1NC(=S)NC1CCC(CN2CCC(c3c[nH]c4ccccc34)CC2)CC1` (configuration not stated), with 6.19 and 6.13; and `CCc1nc2nc(C)cc(Nc3cc(C)cc(C)c3)n2n1`, with 6.54.
As for `CN1CCN(Cc2cccc(Nc3nccc(Nc4ccc(Oc5ccccc5)cc4)n3)c2)CC1`, the figure is 6.52.
As for `CN1CC[C@@H](Oc2cc(NC(=O)Nc3ccc(Cl)c(C(F)(F)F)c3)ccc2Cl)C1`, the figure is 6.00; as for `O=C(/C=C/c1ccc(Cl)c(Cl)c1)NCCCCCN1CCCC(C(=O)Nc2cccc(Cl)c2)C1` (configuration not stated), 6.05; as for `O=C(N[C@@H](Cc1ccccc1)[C@H](O)CNCCC(F)(F)F)c1cccc(OCC2CC2)c1`, 6.21.
With `CCc1[nH]nc(C(=O)Nc2cccc(N3CCCC3)c2)c1C`, the pIC50 is 5.84.
With `CN(C)Cc1ccc(-c2ccc3c(Nc4ccc(Oc5ccccc5)cc4)ccnc3c2)o1`, the negative logarithm of the IC50 (pIC50) is 6.10.
`COc1cc(Cc2cnc(N)nc2N)cc(OC)c1OCCCCCN1C(=O)c2ccccc2C1=O` showed a pIC50 of 6.21.
As for `CC(=O)c1ccc(-n2ccnc2)cc1`, the figure is 6.07; as for `COc1ccc2nc(-c3ccccc3)cc(NN=Cc3ccc([N+](=O)[O-])cc3)c2c1`, 6.82; as for `COC(=O)c1ccc(CC(C)NCC(O)c2cccc(OC(F)(F)F)c2)cc1` (configuration not stated), 6.07.
On to `Cc1cc(C2CCN(CCCCNC(=O)c3ccc(NC(=O)c4ccc(Cl)cc4)cc3)CC2)c(C)cc1OCc1cccnc1`, for which the pIC50 is 6.22.
As for `Cc1n[nH]c(C)c1C1CCN(CC2CCC(NC(=O)/C=C/c3ccc(Cl)c(Cl)c3)CC2)CC1` (configuration not stated), the figure is 6.14; as for `NC(CC1CC(=O)N1CC(=O)O)C(=O)O` (configuration not stated), 6.80.
As for `Cc1cccc2[nH]c(-c3ccc(-c4ccc(CN5CC(C)OC(C)C5)cc4)cc3)nc12` (configuration not stated), the figure is 6.28; as for `Cc1nc(C)n(CC(=O)Nc2cccc(-c3cccc(-c4nc5ccc(C(F)(F)F)cc5[nH]4)c3)c2)n1`, 6.12; as for `COc1ccc(C(C)Nc2nc(N)c3cc(OC)c(OC)cc3n2)cc1` (configuration not stated), 6.03.
As for `COc1ccc(CCOc2c(C)nc(N)nc2N)cc1OC`, the figure is 7.15; as for `CC(C)N=C(N)NN=Cc1ccc(Cl)c(Cl)c1`, 6.28.
`O=C(/C=C/c1ccc(Cl)c(Cl)c1)NCCCCCN1CCCC(CNS(=O)(=O)c2cccc(C(F)(F)F)c2)C1` (configuration not stated) had a pIC50 of 6.02.
As for `O=C(NCCc1cccc(F)c1)c1cc(Br)cc(N2CCN(c3ccncc3)CC2)c1`, the figure is 6.12; as for `CCOC(=O)Cn1ccc2c(NCc3ccccc3)nc(C)nc21`, 6.43.
As for `COc1ccccc1N1CCN(C(C(=O)NCc2ccc3c(c2)OCO3)c2ccc3c(c2)OCCCO3)CC1` (configuration not stated), the figure is 5.95.
Compound `CC(C)(C)OC(=O)NCc1ccc(Nc2nnc(-c3ccc(OCC(=O)NC[C@@H]4CC[C@H]5C[C@@H]4C5(C)C)c([N+](=O)[O-])c3)o2)cc1` had a pIC50 of 6.04.
As for `CN1CCC(N(Cc2ccc(-c3ccc(C(F)(F)F)cc3)nc2)C(=O)Cn2c(CCc3cccc(F)c3F)cc(=O)c3ccccc32)CC1`, the figure is 5.96; as for `CC(=O)c1ccccc1OCCSc1nnc(Cc2cccs2)n1C1CCCCC1`, 6.04.
Then `CC(CN1CCN(C)CC1)C(=O)Nc1cccc(-c2ccc(-c3nc4ccccc4[nH]3)s2)c1` (configuration not stated), with 6.20.
Then `CCOc1ccc(-c2nonc2NC(=O)c2ccc(OC(C)C)cc2)cc1OCC`, with 6.22.
With `O=S(=O)(Nc1cccc(CCN2CCC(N3CCCCC3)CC2)c1)c1ccc(Cl)cc1`, the negative-log IC50 (pIC50) is 6.04.
The compound `CCc1cn2c3c(cc(C(=O)N[C@@H](Cc4ccccc4)[C@H](O)CNCc4ccccc4)cc13)N(C)S(=O)(=O)CC2` showed a pIC50 of 6.18.
As for `N#Cc1ccc(-c2ccc(C(=O)NCCCCN3CCC(c4nc5ccccc5[nH]4)CC3)cc2)cc1`, the figure is 6.00; as for `CN(c1cc(NC(=O)c2ccc(F)cc2)ccn1)C1CCN(Cc2cccc(O)c2)CC1`, 6.04; as for `O=S(=O)(NCCN1CCCC1)c1ccc(-c2cccc(CNCCc3cccs3)c2)s1`, 6.15.
In the case of `COc1ccc(/C=C/c2ccc(-c3c(C)[nH]c(C)c(Cl)c3=O)cc2)cc1OC`, the negative logarithm of the IC50 (pIC50) was 6.55.
Then `O=S(=O)(NCCN1CCCC1)c1cccc(-c2ccc(CNCc3ccc(F)cc3)cc2)c1`, with 6.64; and `O=C(c1cnn(-c2ccccc2)c1C(F)(F)F)N1CCN(c2ccnc3cc(Cl)ccc23)CC1`, with 6.28; and `CSc1nc2nc(C)c(Cc3cccc(F)c3)c(C)n2n1`, with 6.05.
As for `Oc1c(C(Nc2ccccn2)c2ccc(Cl)cc2Cl)ccc2cccnc12` (configuration not stated), the figure is 6.05; as for `CCNC(=O)Nc1ccc(-c2cccc(-c3nc4c(C)cccc4[nH]3)c2)cc1`, 6.12.
Then `Fc1ccc2[nH]c(-c3ccccc3)nc2c1CN1CCC(N2CCCC2)CC1`, with 6.14; and `CN(C)S(=O)(=O)c1cc(-c2ccc3nccc(-c4cccc(S(N)(=O)=O)c4)c3c2)cnc1N`, with 6.60; and `O=C(Nc1ccc(-c2ccccc2)cc1)Nc1cccc(Cn2ncc(N3CCCNCC3)c(Cl)c2=O)c1`, with 6.66.
As for `CCCC(=O)NC(NC(=S)Nc1ccc([N+](=O)[O-])cc1)C(Cl)(Cl)Cl` (configuration not stated), the pIC50 was 5.99.
`CC(C)(C)C1CC(=O)C[C@@H]2C(=O)N(C3CCCCC3)C(=O)[C@H]12` (some centres not stated) showed a negative-log IC50 (pIC50) of 6.38.
Then `O=C(CSc1nc2ccc([N+](=O)[O-])cc2s1)Nc1ccccc1-c1ccccc1`, with 5.93.
Turning to `CC(=NNC(=S)NCCc1ccccc1)c1ccccn1`, the pIC50 was 6.66.
As for `CCOc1cc(C(=O)NCc2cc(Cl)cc(Cl)c2)ccc1-c1nc2ccc(Cl)cc2[nH]1`, the figure is 6.14; as for `O=C(Nc1ccc(Cl)c(Cl)c1)N1CCC(CN2CCC(c3c[nH]c4ccccc34)CC2)CC1`, 6.54; as for `O=C(Nc1cc(C(F)(F)F)cc(C(F)(F)F)c1)c1cc(C(F)(F)F)cc(C(F)(F)F)c1`, 6.06.
Then `O=C(Nc1ccc(-c2csc3nccn23)cc1)c1ccc(Cl)cc1`, with 6.24.
Then `Cc1[nH]c(C)c(-c2ccc(-c3ccc(OC(F)(F)F)cc3)cc2)c(=O)c1Cl`, with 7.40; and `Cc1cc(N[C@@H](Cc2ccccc2)C(=O)NC2CCCC2)nc(NCCOc2ccccc2)n1`, with 5.95.
In the case of `CC1(C)N=C(N)NC(Nc2ccc(Cl)cc2)=N1`, the pIC50 was 6.47.
Then `Cc1c(Cn2ncc(N3CCC(N)CC3)c(Cl)c2=O)cccc1NC(=O)Nc1ccc(-c2ccccc2)cc1`, with 6.15; and `CCCOc1cc(OCCC)cc(-c2cc(=O)c3ccccc3[nH]2)c1`, with 7.22; and `COc1cc2c(cc1O)[C@@H]1[C@H](O)[C@@H](O)C=C3CCN(C2)[C@H]31`, with 6.00.
For `C[C@H](Cc1ccc(S(=O)(=O)c2ccc(C[C@@H](C)NC[C@H](O)c3cccc(Cl)c3)cc2)cc1)NC[C@H](O)c1cccc(Cl)c1`, the pIC50 was 6.59.
As for `COc1ccc(C2(CNCC(O)c3cccc([N+](=O)[O-])c3)CCCCC2)cc1OC` (configuration not stated), the figure is 6.02.
The compound `Cc1cc(F)ccc1Nc1nc(N(C)c2ccccc2)c2cc(OCCCN(C)C)ccc2n1` showed a pIC50 of 6.14.
Take `O=C(Nc1cccc(CN2CCCN(CC3CCCCC3)CC2)c1)c1ccc(Cl)c(Cl)c1`: the negative-log IC50 (pIC50) was 6.02.
Then `O=C(/C=C/c1ccc(Cl)c(Cl)c1)NCCCCCN1CCC(NC(=O)c2ccc3ccccc3c2)CC1`, with 5.99; and `Nc1ccc(-c2cnc3[nH]cc(-c4ccc(C(=O)O)cc4)c3c2)cn1`, with 6.02.
As for `CCN(CC)CCNC(=O)c1ccc(NC(=O)c2cc(-c3ccncc3)nc3ccccc23)cc1`, the figure is 6.11; as for `C[C@]12CC3CC(Nc4nc(N5CCOCC5)nc5ccccc45)(C1)C[C@@](C)(C3)C2`, 6.03; as for `COc1ccc(-c2cccc(NC(=O)c3ccc(Cl)cc3)c2)cc1CNC(C)C`, 6.16.
Consider `CCNC(=O)Nc1cccc(-c2cccc(-c3nc4c(C)cccc4[nH]3)c2)c1`, for which the negative logarithm of the IC50 (pIC50) was 5.98.
As for `COc1cc(C(=O)NC2CC(C)(C)NC(C)(C)C2)ccc1-c1cc2cc(Cl)c(Cl)cc2[nH]1`, the figure is 6.14; as for `OCc1ccc(-c2cncc(Nc3ccc(F)c(Cl)c3)c2)cc1`, 7.05.
Regarding `COc1cccc(CC(=O)N2CCC(n3c(C)nc4ccc(F)cc43)CC2)c1`, the negative logarithm of the IC50 (pIC50) is 6.04.
As for `C=CCN1CCC(N(Cc2cccc(Oc3ccccc3)c2)C(=O)C(c2ccccc2)c2ccccc2)CC1`, the figure is 5.94; as for `Fc1ccc2nc(-c3cccc(-c4ccc(CN5CCN(c6ccncc6)CC5)cc4)c3)[nH]c2c1`, 6.68; as for `Clc1cccc(C=NNc2nc(Nc3ccccc3)nc(Nc3ccccc3)n2)c1`, 6.08.
As for `COc1cc(OC)cc(-c2nnc(Sc3ccc(C#N)c([N+](=O)[O-])c3)n2C)c1`, the figure is 6.03; as for `Cc1ccc(NC(=O)c2cccc(CN3CCCN(Cc4cccc(O)c4)CC3)c2)cc1C`, 5.98; as for `O=C(Cn1nc(Br)nc1[N+](=O)[O-])NCC1CCCCC1`, 5.96.
`Cc1cc(=O)oc2c1ccc1oc(C(O)c3ccc(Cl)cc3)c(C)c12` (configuration not stated): the negative-log IC50 (pIC50) was 6.89.

As usually defined, the pIC50 is the IC50 on a negative log10 scale, so that one unit is a factor of ten.
